# In article PMC6777076 (ACS Omega, 2019):
# Molecular target: T1, uridine nucleoside ribohydrolase (UNH) (Trichomonas vaginalis, UniProt A2FTT0)
# T1 sequence (A2FTT0 1-347): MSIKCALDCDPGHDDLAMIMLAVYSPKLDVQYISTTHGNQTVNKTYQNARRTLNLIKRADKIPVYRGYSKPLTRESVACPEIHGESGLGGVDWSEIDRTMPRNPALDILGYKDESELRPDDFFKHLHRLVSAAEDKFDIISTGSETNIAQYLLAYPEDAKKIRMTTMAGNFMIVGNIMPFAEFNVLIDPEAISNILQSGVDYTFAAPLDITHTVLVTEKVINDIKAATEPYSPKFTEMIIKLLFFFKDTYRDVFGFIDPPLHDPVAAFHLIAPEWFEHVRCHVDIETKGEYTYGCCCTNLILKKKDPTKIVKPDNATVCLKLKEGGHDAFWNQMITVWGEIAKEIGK
# Test: 19F NMR-based activity assay
# Type: biochemical
# Details: from UNH potency and heavy atom count
row,LE (ligand efficiency),SMILES
1,0.53,CSc1nc2ccccc2[nH]1 [2-methylthiobenzimidazole]
2,0.36,COc1ccc2[nH]c([S+]([O-])Cc3ncc(C)c(OC)c3C)nc2c1 (centres unmarked) [omeprazole]
